# pIC50: −log10 of the molar value. “And” between values parts separate entries of the source, which are not always exact repeats. Equal entries are not always repeated.
# Key:
# [1] = test system: USP30 c2; assay: Thermal shift assay, USP30 c2; type: binding, human; details: 20 μM inhibitor
# Method: (§1) The thermal stability of USP30 constructs and effects of either inhibitor or Ub-PA binding were determined by thermal shift assays. Inhibitor, Ub-PA and SYPRO orange dye (Sigma, 5,000× stock in DMSO) solutions were prepared in 1× PBS, 4 mM DTT. Inhibitor/Ub-PA was prediluted to 100 µM, and SYPRO orange dye was prediluted to 50× (from the commercial stock). Mixtures of protein, inhibitor/Ub-PA and SYPRO were prepared with inhibitor/Ub-PA at a final concentration of 20 μM, SYPRO at a final concentration of 4× and protein at a final concentration of 2 μM for c1, 4 μM for ch1, ch4 and c2 and 3 μM for ch2 and ch3. Samples were added in triplicate to a white 96-well PCR plate (Bio-Rad). Fluorescence intensity was monitored (excitation, 450–490 nm; emission, 560–580 nm) at a gradient of 20–90 °C (increment of 0.3 °C, hold for 5 s before read) on a real-time PCR system (Bio-Rad).
# [2] = target: USP30^ch3 F453Y (Homo sapiens, UniProt Q70CQ3, F453Y, form not given); assay: Ub–RhoG cleavage enzyme inhibition assay, chimera 3 F453Y; type: biochemical; details: USP30^ch3 F453Y vs WT
# Method: (§2) Enzyme kinetics were performed in black, low-volume, non-binding-surface 384-well plates. […] Next, 10 µl of 2× enzyme solution was added in triplicate to the plate. The reaction was started by adding 10 µl of 2× substrate solution. […] Inhibitor solution (4×) was added to 4× enzyme solution to create a 2× enzyme–inhibitor mixture. Next, 10 µl of this 2× enzyme–inhibitor mixture was then added to the plate in triplicate, and the plate was incubated at room temperature for 90 min. The reaction was started by adding 10 µl of 2× Ub–RhoG substrate. […] Data were analyzed with GraphPad Prism.
# [3] = test system: USP30^ch4; assay: Thermal shift assay, USP30 ch4; type: binding, human; details: 20 μM inhibitor
# Method: as §1
# [4] = target: USP30^ch3 A162S (Homo sapiens, UniProt Q70CQ3, A162S, form not given); assay: Thermal shift assay, USP30 ch3 A162S; type: binding; details: 20 μM inhibitor
# Method: as §1
# [5] = target: T1, USP30^c1 (Homo sapiens, UniProt Q70CQ3, DEL179-208/DEL211-214/DEL358-428/F348D/I353E/M350S/N216S/S215G); assay: Ub–RhoG cleavage enzyme inhibition assay, USP30 construct 1; type: biochemical
# T1 sequence (Q70CQ3 with tags, fused parts or gaps DEL179-208/DEL211-214/S215G/N216S/F348D/M350S/I353E/DEL358-428): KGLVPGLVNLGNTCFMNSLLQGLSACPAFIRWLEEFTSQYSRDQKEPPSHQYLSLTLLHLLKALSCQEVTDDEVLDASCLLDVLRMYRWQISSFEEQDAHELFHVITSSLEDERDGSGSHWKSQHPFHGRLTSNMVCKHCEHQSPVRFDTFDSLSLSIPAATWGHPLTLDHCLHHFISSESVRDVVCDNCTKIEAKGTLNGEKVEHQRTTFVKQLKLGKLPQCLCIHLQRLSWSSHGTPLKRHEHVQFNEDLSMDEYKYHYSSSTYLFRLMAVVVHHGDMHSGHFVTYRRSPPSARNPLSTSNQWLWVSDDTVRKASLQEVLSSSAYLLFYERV
# Method: as §2
# [6] = pH 8, read-out: USP30c1 activity
# Sequence of USP30^ch3 A162S (Q70CQ3 64-502 A162S, form open): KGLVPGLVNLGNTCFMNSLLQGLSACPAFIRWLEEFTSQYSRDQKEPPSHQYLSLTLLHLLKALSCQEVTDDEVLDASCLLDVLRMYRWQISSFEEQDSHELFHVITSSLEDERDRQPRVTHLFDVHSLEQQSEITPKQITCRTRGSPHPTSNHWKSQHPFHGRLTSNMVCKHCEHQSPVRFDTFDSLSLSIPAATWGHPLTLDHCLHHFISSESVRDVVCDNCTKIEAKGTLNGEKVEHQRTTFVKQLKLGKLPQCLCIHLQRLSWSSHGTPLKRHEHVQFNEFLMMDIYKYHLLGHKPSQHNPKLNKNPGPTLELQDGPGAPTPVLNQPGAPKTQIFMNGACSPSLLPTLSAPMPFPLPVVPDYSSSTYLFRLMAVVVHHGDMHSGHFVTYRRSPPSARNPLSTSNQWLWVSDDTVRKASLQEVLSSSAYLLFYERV
# Sequence of USP30^ch3 A162S (P54578 248-318 partner, form open): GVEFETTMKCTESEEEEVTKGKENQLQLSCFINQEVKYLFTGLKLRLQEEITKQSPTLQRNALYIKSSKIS
# Sequence of USP30^ch3 A162S (Q9P2H5 821-846 partner, form open): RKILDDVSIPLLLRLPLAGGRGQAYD
# Sequence of USP30^ch3 F453Y (Q70CQ3 64-502 F453Y, form open): as the sequence (Q70CQ3 64-502 A162S, form open) above, with S99A, F390Y counted along it
# Sequence of USP30^ch3 F453Y (P54578 248-318 partner, form open): as the sequence (P54578 248-318 partner, form open) above
smiles,measurement,setting,value
CC(C)(CO)NS(=O)(=O)c1ccc(NC(=O)[C@H](Cc2ccccc2)NC(=O)c2ccc(F)cc2)cc1 [NK036],"Tm in presence of compound, USP30 c2",[1],58.2 °C
same,"ΔTm, USP30 c2",[1]; replicates or average,7.5 °C
same,reduction of inhibition potency by F453Y substitution (specificity window vs WT),[2],more than two orders of magnitude
same,"Tm in presence of compound, USP30^ch4",[3],59.2 °C
same,"ΔTm, USP30^ch4","[3]; replicates or average, 20 µM",7.7 °C and 7.6 °C and 7.9 °C
same,"Tm in presence of compound, USP30^ch3 A162S",[4],59.7 °C
same,pIC50,"[5]; Ub–RhoG cleavage, 1.5 h pre-incubation, mean ± s.e.m. from curve fitting",8.13
same,activity at 1.562 pM,[5]; [6],100%
same,activity at 6.25 pM,[5]; [6],101%
same,activity at 25 pM,[5]; [6],98.2%
same,activity at 0.0001 µM,[5]; [6],95.3%
same,activity at 0.00039 µM,[5]; [6],89%
same,activity at 0.00156 µM,[5]; [6],79.6%
same,activity at 0.00625 µM,[5]; [6],53.6%
same,activity at 0.025 µM,[5]; [6],27%
same,activity at 0.1 µM,[5]; [6],10.3%
same,activity at 0.4 µM,[5]; [6],3.49%
same,activity at 1.6 µM,[5]; [6],1.25%

# From PMC12440824, “Chimeric deubiquitinase engineering reveals structural basis for specific inhibition of the mitophagy regulator USP30” (Nature Structural & Molecular Biology, 2025)
